# According to patent US4874776A, “Compound having mucus regulating and elastase-inhibitory activities, for the therapy of pulmonal emphysema and pulmonal fibrosis” (Yason S.r.l., priority 1988, dated 1989):
# How the values were obtained:
# [1] = tested on: hepatic intoxication induced by carbon tetrachloride; assay: Hepato-protecting activity, hepatic intoxication induced by carbon tetrachloride; type: in vivo, rat; conditions: male Wistar rats, 100 mg/kg i.p.; for GPT x ± es: 15 minutes before CCl4 0,15 ml/kg oral, 24 hours; for GPT % INHIBITION VS. CONTROLS: CCl4 0,15 ml/kg
# Description: Hepato-protecting activity of YS 795 was evaluated in comparison with N-acetylcystein, by means of the test of hepatic intoxication induced by carbon tetrachloride, according to the method by Sanna et al. (Experientia, 32 (1), 91, 1976).
# Male Wistar rats (268-346 g body weight) fasted for 18 hours, with water "ad libitum", were used.
# YS 795 and N-acetylcystein were administered intraperitoneally at the dose of 100 mg/kg, whereas the control group received the only carrier.
# 15 minutes after the drug administration, the animals were treated orally with 0,15 ml/kg of carbon tetrachloride.
# After 24 more hours, the animals were killed by bleeding after ether anesthesia.
# [2] = tested on: secretion of respiratory tract; assay: Bronchosecretagogue activity, sodium fluoresceine test; type: in vivo, rat; conditions: male Wistar rats, 100 mg/kg; for SODIUM FLUORESCEINE: 10 animals
# Description: Bronchosecretagogue activity was evaluated by means of sodium fluoresceine test, according to the procedure by Mawatari ("Experimental studies on the expectorant action of several drugs" Kagoshima Kaigaken Igaken Zasshi 27, 561, 1976), said test consisting in determining the sodium fluoresceine amount eliminated from respiratory tract: the higher the secretion, the higher the amount of sodium fluoresceine eliminated. Accordingly, any compound increasing the secretion of respiratory tract causes an increase in sodium fluoresceine elimination, which can easily be calculated.
# Male Wistar rats (100-200 g body weight), fasted for 18 hours, with water "ad libitum", were administered with YS 795 at the dose of 100 mg/kg and, by comparison, with carboxymethyl cystein at equiponderal doses, by the oral route.
# 30 minutes after the treatment, sodium fluoresceine was injected subcutaneously and 30 minutes after the animals were killed by bleeding. The whole respiratory tree was then withdrawn and the percentage of sodium fluoresceine present was evaluated.
# [3] = Acute toxicity (LD50, Litchfield and Wilcoxon) in the rat; conditions: in vivo, read-out: DL50 (the source's name)
# Description: (§1) Acute toxicity of YS 795 was calculated in the rat and the mouse after both oral and intraperitoneal administrations.
# (§2) LD50 was determined according to the method of Litchfield and Wilcoxon (J. Pharmacol. Exp. Therap. 96, 99-118, 1949).
# [4] = Acute toxicity (LD50, Litchfield and Wilcoxon) in the mouse; conditions: in vivo, read-out: DL50 (the source's name)
# Description: as §1, §2
# elastase = assay: Elastase-inhibitory activity; type: biochemical
# Description: Inhibition of elastase activity by YS 795 was evaluated according to the method by D. A. Hall, S. El Ridi (Methods of connective tissue research, Ioyson-Bruvvers Ltd.; Oxford--1976) and by R. M. Senior et al. (Elastine and elastic Tissue, Plenum Press, pp. 249-254, New York--1977).
# [5] = tested on: emphysema induced by porcine pancreatic elastase; assay: Emphysema induced by porcine pancreatic elastase in the hamster; type: in vivo
# Description: Emphysema induced by porcine pancreatic elastase in the hamster.
# Capability of YS 795 in preventing emphysema caused by instillation of elastase was studied according to the method by Stone P. J. et al. (Am. Rev. Respir. Dis.; 124/1; 1981) and by Yu et al. ("Elastin and elastic tissues"; Plenum Press; New York; 1977).
# 16 Hamsters weighing 100-120 g were divided in 4 groups of 4 animals each (Groups A, B, C and controls) and treated as follows:
# Group A: in tratracheal instillation of 0,1 mg of porcine pancreatic elastase 1 hour after administration of 100 mg/kg of YS 795.
# Group B: YS 795 was administered 1 hour after elastase instillation.
# Group C: YS 795 was administered 4 hours after elastase instillation.
# Controls: physiological saline was administered 1 hour after elastase instillation.
# At set times (72 hours and 12 days), the animals were killed after intraperitoneal anesthesia with pentobarbital. Lungs were intubated through trachea and fixed.
# Morphological and morphometrical analysis of the pulmonal sections were then carried out under a microscope.
# collagenase = assay: Collagenase inhibitory activity; type: biochemical; conditions: read-out: IC50 collagenase inhibition
# Description: The inhibition of collagenase by means of YS 795 was evaluated according to the method by C. L. Hu, G. Crombie, C. Franzeblau (Analyt., Biochem. 88, 638, 1978).
# [6] = Pharmacokinetics, plasma and tissue concentrations by gaschromatographic analysis; type: in vivo; conditions: rat
# Description: Male CD-COBS rats weighing 200-220 g were used, treated with YS 795 and 4-thiazolidine-carboxylic acid by the oral or intraperitoneal route, in equimolecular amounts (YS 795=795=100 mg/kg; thiazolidine-carboxylic acid =65 mg/kg).
# One hour after the treatment the animals were killed by beheading; blood was collected in heparinized test-tubes and centrifuged for 10 minutes at 3500 rpm to prepare plasma. The tissues (liver, lung, kidney and brain) were homogenized in 4 volumes of 0,05M phosphate buffer.
# Tissular concentrations were studied by gaschromatographic analysis.
# [7] = tested on: patients affected by chronic bronchitis; assay: Clinical study in patients affected by chronic bronchitis (tolerability and mucus regulating activity); type: in vivo, human; conditions: 3×300 mg capsules a day
# Description: YS 795 in capsules was administered to hospitalized patients affected by chronic bronchitis, in order to test tolerability and mucus regulating activity.
# 10 patients, 5 males and 5 females, of 65-70 years age, smokers or ex-smokers, were treated with YS 795 administered at a dose of 3×300 mg capsules a day, in the morning, at noon and in the night, with full stomach, for a period of 4 weeks.
# All drugs having mucolytic, bronchodynamic, steroidal and balsamic activities were excluded during the observation period, whereas the "routine" therapy of concomitant diseases, based on administration of diuretic, hypotensive, antidiabetic, vasodilating and antibiotic drugs, was continued.
# Before and after the treatment, tests were carried out to evaluate possible side-effects of YS 795 on hemopoietic, hepatic and renal functions; heart rate and arterial pressure were further checked during the treatment.
# [8] = Solubility of the obtained compound; type: physicochemical
smiles,measurement,setting,value
"CC(=O)N[C@@H](CS)C(=O)O [N--ACETYLCYSTEIN, N-acetylcystein, reference compound]",GPT x ± es,[1],"168,2 ± 8,68 U/L"
same,GPT % INHIBITION VS. CONTROLS,[1],"52,9%"
"NC(CSCC(=O)O)C(=O)O (stereo not drawn) [S--CARBOXYMETHYLCYSTEIN, reference compound]",SODIUM FLUORESCEINE % Δ vs. controls,[2],"80,6%"
same,SODIUM FLUORESCEINE,[2],"0,56 μg/ml"
"CCOC(=O)N1CSCC1C(=O)O (stereo not drawn) [YS 795, N-carbethoxy-4-thiazolidine-carboxylic acid]",LD50,"[3]; ip, female",420 mg/kg
same,LD50,"[3]; ip, male",415 mg/kg
same,LD50,"[3]; po, os, male",> 4000 mg/kg
same,LD50,"[4]; ip, female",372 mg/kg
same,LD50,"[4]; ip, male",380 mg/kg
same,LD50,"[4]; po, os, male",> 4000 mg/kg
same,IC50,elastase,11 mM
same,Effect of the time of administration on the antiemphysema effect,[5]; administered 1 hour before vs. 1 or 4 hours after elastase instillation,more marked when YS 795 was administered before elastase instillation
same,Antagonism of pulmonal emphysema (morphological and morphometrical analysis of pulmonal sections),"[5]; hamster, 100 mg/kg, 0,1 mg elastase intratracheal, 72 hours and 12 days",can antagonize pulmonal emphysema induced by porcine pancreatic elastase
same,IC50,collagenase,15 mM
same,SODIUM FLUORESCEINE % Δ vs. controls,[2],"70,9%"
same,SODIUM FLUORESCEINE,[2],"0,53 μg/ml"
same,GPT x ± es,[1],"220 ± 84,47 U/L"
same,GPT % INHIBITION VS. CONTROLS,[1],"38,4%"
same,Metabolism,[6],subsequently metabolized to n-thiazolidine-carboxylic acid
same,Time till which the compound is still found as such,[6],12 h
same,Time of plasmatic concentration peak,[6]; after the administration,between the first and the second hour
same,Drug amounts in liver and lungs in comparison with thiazolidine-carboxylic acid,[6]; equimolecular amounts (100 mg/kg vs. 65 mg/kg),remarkanly higher
same,"Tissue distribution (liver, lung, kidney, brain)",[6]; found as such and as thiazolidine-carboxylic derivative,present in all the examined tissues
same,Absorption,"[6]; oral and intraperitoneal route, 100 mg/kg",well adsorbed by both oral and intraperitonel route
same,Fluidifying and mucus regulating activities,"[7]; patients with chronic bronchitis, 4 weeks",good fluidifying and mucus regulating activities
same,Effects on arterial pressure and heart rate,"[7]; patients, 4 weeks",no clinically significant effects
same,Tolerability at gastric level,"[7]; patients, 4 weeks",well tolerated
same,"Effect on hemopoietic, hepatic and renal functions (laboratory tests)","[7]; patients, before and after 4 weeks","does not affect hemopoietic, hepatic and renal functions"
same,Solubility in common organic solvents,[8]; common organic solvents,soluble in common organic solvents
same,Solubility in water,[8]; water,unsoluble in water
